Results taken from PubChem BioAssay (NCI).
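Briefly, cells in 96-well plates were exposed to five compound concentrations for 48 h, and endpoints were estimated by linear interpolation. At the GI50, growth is halved. At the TGI there is no net growth.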

How the values were obtained:
Assay in all cases: DTP human tumour cell line panel, 48 h
[1] = tested on: SF-268 CNS
[2] = tested on: SK-MEL-5 melanoma
[3] = tested on: OVCAR-4 ovarian
[4] = tested on: SN12C renal
[5] = tested on: DU-145 prostate
[6] = tested on: RXF 393 renal
[7] = tested on: A549 NSCLC
[8] = tested on: HCC-2998 colon
[9] = tested on: MOLT-4 leukemia
[10] = tested on: SNB-19 CNS
[11] = tested on: OVCAR-8 ovarian
[12] = tested on: NCI-H23 lung
[13] = tested on: SF-539 CNS
[14] = tested on: COLO 205 colon
[15] = tested on: NCI/ADR-RES ovarian
[16] = tested on: M14 melanoma
[17] = tested on: CCRF-CEM leukemia
[18] = tested on: OVCAR-3 ovarian
[19] = tested on: PC-3 prostate
[20] = tested on: MDA-MB-231 breast
[21] = tested on: LOX IMVI melanoma
[22] = tested on: HOP-92 NSCLC
[23] = tested on: UO-31 renal
[24] = tested on: HCT-15 colon
[25] = tested on: IGROV1 ovarian
[26] = tested on: NCI-H226 lung
[27] = tested on: EKVX NSCLC
[28] = tested on: UACC-62 melanoma
[29] = tested on: NCI-H522 lung
[30] = tested on: KM12 colon
[31] = tested on: TK-10 renal
[32] = tested on: HOP-62 NSCLC
[33] = tested on: BT-549 breast
[34] = tested on: HT29 colon
[35] = tested on: K-562 leukemia
[36] = tested on: SNB-75 CNS
[37] = tested on: SW-620 colon
[38] = tested on: HL-60(TB) leukemia
[39] = tested on: ACHN renal
[40] = tested on: SK-MEL-2 melanoma
[41] = tested on: 786-0 renal
[42] = tested on: RPMI-8226 leukemia
[43] = tested on: CAKI-1 renal
[44] = tested on: SR leukemia
[45] = tested on: OVCAR-5 ovarian
[46] = tested on: NCI-H460 lung
[47] = tested on: MCF7 breast
[48] = tested on: HS 578T breast
[49] = tested on: SF-295 CNS
[50] = tested on: SK-OV-3 ovarian
[51] = tested on: A498 renal
[52] = tested on: U251 CNS
[53] = tested on: MALME-3M melanoma
[54] = tested on: HCT-116 colon

Question: Which GI50 [1] does the source give for `COC(=O)[C@@H](C)C[C@H](Cc1ccccc1)NC(=O)c1nc([C@@H](C[C@H](C(C)C)N(C)C(=O)[C@@H](NC(=O)[C@H]2CCCCN2C)C(C)C)OC(C)=O)sc1C(C)C` here?
Answer: The GI50 was 0.0184 µM.

Question: What about the TGI [1] of the same molecule?
Answer: The TGI was 7.72 µM.

Question: What about the GI50 [2] of the same molecule?
Answer: The GI50 was < 0.00333 µM.

Question: And the TGI [2]?
Answer: The TGI was 0.0449 µM.

Question: What about the GI50 [3] of the same molecule?
Answer: Its GI50 is 0.0103 µM.

Question: And the TGI [3]?
Answer: Its TGI is > 33.3 µM.

Question: What about the GI50 [4] of the same molecule?
Answer: Its GI50 is 0.00765 µM.

Question: And the TGI [4]?
Answer: Its TGI is 4.51 µM.

Question: What about the GI50 [5] of the same molecule?
Answer: Its GI50 is < 0.00333 µM.

Question: What about the TGI [5] of the same molecule?
Answer: The TGI was 0.434 µM.

Question: What about the GI50 [6] of the same molecule?
Answer: The GI50 was < 0.00333 µM.

Question: And the TGI [6]?
Answer: Its TGI is 7.78 µM.

Question: And the GI50 [7]?
Answer: Its GI50 is 0.0187 µM.

Question: What about the TGI [7] of the same molecule?
Answer: Its TGI is 15.7 µM.

Question: What about the GI50 [8] of the same molecule?
Answer: Its GI50 is < 0.00333 µM.

Question: What about the TGI [8] of the same molecule?
Answer: Its TGI is 1.44 µM.

Question: And the GI50 [9]?
Answer: The GI50 was 0.0139 µM.

Question: What about the TGI [9] of the same molecule?
Answer: Its TGI is 14.5 µM.

Question: What about the GI50 [10] of the same molecule?
Answer: The GI50 was < 0.00333 µM.

Question: What about the TGI [10] of the same molecule?
Answer: The TGI was > 33.3 µM.

Question: What about the GI50 [11] of the same molecule?
Answer: The GI50 was 0.00792 µM.

Question: And the TGI [11]?
Answer: The TGI was 8.62 µM.

Question: What about the GI50 [12] of the same molecule?
Answer: The GI50 was 0.00965 µM.

Question: What about the TGI [12] of the same molecule?
Answer: Its TGI is 16.1 µM.

Question: And the GI50 [13]?
Answer: Its GI50 is 0.007 µM.

Question: What about the TGI [13] of the same molecule?
Answer: Its TGI is 0.0242 µM.

Question: What about the GI50 [14] of the same molecule?
Answer: Its GI50 is 0.00522 µM.

Question: And the TGI [14]?
Answer: Its TGI is 0.0401 µM.

Question: What about the GI50 [15] of the same molecule?
Answer: The GI50 was 0.216 µM.

Question: And the TGI [15]?
Answer: The TGI was > 7.8 µM.

Question: And the GI50 [16]?
Answer: Its GI50 is 0.00338 µM.

Question: And the TGI [16]?
Answer: Its TGI is 0.0127 µM.

Question: And the GI50 [17]?
Answer: The GI50 was 0.00793 µM.

Question: And the TGI [17]?
Answer: Its TGI is > 33.3 µM.

Question: And the GI50 [18]?
Answer: The GI50 was < 0.00333 µM.

Question: What about the TGI [18] of the same molecule?
Answer: The TGI was 0.0703 µM.

Question: And the GI50 [19]?
Answer: The GI50 was < 0.00333 µM.

Question: And the TGI [19]?
Answer: The TGI was > 33.3 µM.

Question: What about the GI50 [20] of the same molecule?
Answer: Its GI50 is 0.00902 µM.

Question: And the TGI [20]?
Answer: Its TGI is 2.2 µM.

Question: And the GI50 [21]?
Answer: The GI50 was 0.00791 µM.

Question: What about the TGI [21] of the same molecule?
Answer: Its TGI is 3.93 µM.

Question: What about the GI50 [22] of the same molecule?
Answer: Its GI50 is 0.219 µM.

Question: And the TGI [22]?
Answer: Its TGI is > 21.6 µM.

Question: What about the GI50 [23] of the same molecule?
Answer: Its GI50 is 0.0154 µM.

Question: And the TGI [23]?
Answer: Its TGI is 5.37 µM.

Question: What about the GI50 [24] of the same molecule?
Answer: The GI50 was 0.0335 µM.

Question: What about the TGI [24] of the same molecule?
Answer: Its TGI is 4.43 µM.

Question: What about the GI50 [25] of the same molecule?
Answer: Its GI50 is < 0.00333 µM.

Question: And the TGI [25]?
Answer: Its TGI is > 11.9 µM.

Question: What about the GI50 [26] of the same molecule?
Answer: The GI50 was 0.0122 µM.

Question: What about the TGI [26] of the same molecule?
Answer: The TGI was 1.37 µM.

Question: What about the GI50 [27] of the same molecule?
Answer: Its GI50 is 0.0135 µM.

Question: And the TGI [27]?
Answer: Its TGI is > 33.3 µM.

Question: And the GI50 [28]?
Answer: Its GI50 is < 0.00333 µM.

Question: And the TGI [28]?
Answer: The TGI was 32.6 µM.

Question: And the GI50 [29]?
Answer: The GI50 was < 0.00333 µM.

Question: What about the TGI [29] of the same molecule?
Answer: Its TGI is 0.055 µM.

Question: And the GI50 [30]?
Answer: The GI50 was < 0.00333 µM.

Question: And the TGI [30]?
Answer: The TGI was 4.2 µM.

Question: What about the GI50 [31] of the same molecule?
Answer: Its GI50 is 0.117 µM.

Question: And the TGI [31]?
Answer: Its TGI is 14.4 µM.

Question: What about the GI50 [32] of the same molecule?
Answer: The GI50 was 0.0129 µM.

Question: And the TGI [32]?
Answer: Its TGI is 10.4 µM.

Question: What about the GI50 [33] of the same molecule?
Answer: Its GI50 is < 0.00333 µM.

Question: And the TGI [33]?
Answer: The TGI was 0.0837 µM.

Question: And the GI50 [34]?
Answer: The GI50 was < 0.00333 µM.

Question: And the TGI [34]?
Answer: Its TGI is 0.583 µM.

Question: What about the GI50 [35] of the same molecule?
Answer: The GI50 was < 0.00333 µM.

Question: What about the TGI [35] of the same molecule?
Answer: Its TGI is 5.43 µM.

Question: What about the GI50 [36] of the same molecule?
Answer: The GI50 was 0.00388 µM.

Question: And the TGI [36]?
Answer: The TGI was 9.38 µM.

Question: What about the GI50 [37] of the same molecule?
Answer: Its GI50 is < 0.00333 µM.

Question: What about the TGI [37] of the same molecule?
Answer: Its TGI is > 25.7 µM.

Question: And the GI50 [38]?
Answer: The GI50 was < 0.00333 µM.

Question: What about the TGI [38] of the same molecule?
Answer: Its TGI is < 0.00333 µM.

Question: And the GI50 [39]?
Answer: The GI50 was < 0.00333 µM.

Question: And the TGI [39]?
Answer: The TGI was 7.06 µM.

Question: What about the GI50 [40] of the same molecule?
Answer: Its GI50 is 0.00503 µM.

Question: What about the TGI [40] of the same molecule?
Answer: Its TGI is 5.73 µM.

Question: And the GI50 [41]?
Answer: The GI50 was < 0.00333 µM.

Question: What about the TGI [41] of the same molecule?
Answer: The TGI was 1.06 µM.

Question: What about the GI50 [42] of the same molecule?
Answer: Its GI50 is < 0.00333 µM.

Question: What about the TGI [42] of the same molecule?
Answer: Its TGI is 6.96 µM.

Question: And the GI50 [43]?
Answer: Its GI50 is 0.00483 µM.

Question: And the TGI [43]?
Answer: The TGI was 5.53 µM.

Question: And the GI50 [44]?
Answer: Its GI50 is < 0.00333 µM.

Question: What about the TGI [44] of the same molecule?
Answer: Its TGI is > 15 µM.

Question: And the GI50 [45]?
Answer: Its GI50 is 0.0136 µM.

Question: And the TGI [45]?
Answer: Its TGI is 16 µM.

Question: What about the GI50 [46] of the same molecule?
Answer: The GI50 was 0.0045 µM.

Question: What about the TGI [46] of the same molecule?
Answer: The TGI was 3.52 µM.

Question: And the GI50 [47]?
Answer: Its GI50 is < 0.00333 µM.

Question: And the TGI [47]?
Answer: Its TGI is > 25.6 µM.

Question: And the GI50 [48]?
Answer: Its GI50 is 0.00503 µM.

Question: What about the TGI [48] of the same molecule?
Answer: Its TGI is 1.34 µM.

Question: What about the GI50 [49] of the same molecule?
Answer: Its GI50 is < 0.00333 µM.

Question: And the TGI [49]?
Answer: Its TGI is 0.276 µM.

Question: What about the GI50 [50] of the same molecule?
Answer: The GI50 was < 0.00333 µM.

Question: What about the TGI [50] of the same molecule?
Answer: Its TGI is 33.1 µM.

Question: And the GI50 [51]?
Answer: The GI50 was < 0.00333 µM.

Question: What about the TGI [51] of the same molecule?
Answer: Its TGI is 0.00776 µM.

Question: What about the GI50 [52] of the same molecule?
Answer: Its GI50 is 0.012 µM.

Question: What about the TGI [52] of the same molecule?
Answer: The TGI was 8.51 µM.

Question: What about the GI50 [53] of the same molecule?
Answer: Its GI50 is 0.0424 µM.

Question: What about the TGI [53] of the same molecule?
Answer: The TGI was 5.81 µM.

Question: What about the GI50 [54] of the same molecule?
Answer: The GI50 was < 0.00333 µM.

Question: What about the TGI [54] of the same molecule?
Answer: Its TGI is 0.476 µM.
